The values below come from patent publication US9598463B2, “Mucin hypersecretion inhibitors and methods of use” (BIOMARCK PHARMACEUTICALS, LTD., priority 2005, dated 2017).

Marks after values point to notes of the source that are not given here. Where a SMILES comes first, the peptide text is derived from it. The star is where a group is joined. Myristoyl = CCCCCCCCCCCCCC(=O)* A value given as a limit tells only on which side of the number the result lay.

A short description of data set [1]: Qualitative solubility of test peptides in 0.5 N saline. Type of data set: physicochemical. The note with it: pH 6.5, 20° C. (table title). The method, boiled down:
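Weighed peptide (1 to 5 mg) titrated with 25 μL aliquots of 0.5 N saline, pH 6.5, at 25° C until dissolution judged visually. Solubility calculated from volume needed; complete dissolution in first aliquot reported as greater than, non-dissolution as less than, the calculated value.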

A further data set deals with HBE1 cells. Description: PMA-induced mucin hypersecretion in human bronchial epithelial cells (air/liquid interface, MUC5A ELISA). The class given is cell-based. The note with it: for Block of PMA-induced increase in mucin secretion: pretreatment with 25 μM peptide. Here is the method:
HBE1 is a papilloma virus-transformed human bronchial epithelial cell line capable of mucin secretion when cultured in air/liquid interface. HBE1 cells were cultured in the air/liquid interface as described previously (Li et al, J. Biol. Chem., volume 276, pp 40982-40990, 2001). Briefly, HBE1 cells were cultured in air/liquid interface by seeding an appropriate number of cells in 12-well Transwell clear culture inserts (Costar, Cambridge, Mass.) that were thinly coated with rat tail collagen, type I (Collaborative Biomedical, Bedford, Mass.). Cells were initially cultured submerged in medium in a humidified 95% air, 5% CO2 environment for 5-7 days until nearly confluent. At that time, the air/liquid interface was created by removing the apical medium and feeding cells basalaterally. Medium was renewed daily thereafter. Cells were cultured for an additional 14 days to allow full differentiation. The accumulated mucin at the apical surface of the cells was removed by washing with phosphate-buffered saline, pH 7.2. To collect the baseline mucin secretion, cells were incubated for 30 min with medium alone and secreted mucin in the apical medium was collected, and quantitated by ELISA. To determine the mucin hypersecretion induced by a mucin secretagogue, cells were exposed to medium containing 0.5 μM phorbol myristate acetate, (PMA) for 30 min. and mucin was collected and quantitated by ELISA. […] Six wells were used for each test peptides and for each control. Secreted mucin in the apical medium was collected and quantitated by sandwich ELISA method using alkaline phosphatase-conjugated mucin (MUC5A) specific antibody (Zymed Laboratories, San Francisco, Calif.).
A general note: An ELISA detects its analyte on a solid surface through an enzyme-linked reagent.

For data set [2], the system named is methacholine-induced mucin hypersecretion. Description: Methacholine-induced mucin hypersecretion in ovalbumin-sensitized mouse model of asthma, BAL mucin ELISA (Balb/C mice). The class given is in vivo. The settings on record: for Mucin Secretion % control: peptides at 100 μM; for Mucin Secretion % of control: Table IV, peptide 100 μM. The method, boiled down: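 BP2 or Balb/C mice immunized s.c. twice weekly with 1 μg ovalbumin, aerosol ovalbumin challenge after 14 days, then aerosolized methacholine 72 h later. Anti-MUC5AC ELISA on cell-free BAL, minus non-immune antibody signal, normalized to Bradford protein; 6 mice per group.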

For data set [3] the test system is unchanged. The experiment in a line: Methacholine-induced mucin hypersecretion in ovalbumin-sensitized mouse model of asthma, BAL mucin ELISA (BP2 mice). The class given is in vivo. The source says: (§1) Experiments were designed to test whether or not the MANS peptide and other test peptides related thereto inhibit hypersecretion of mucin in murine airway in vivo. The ovalbumin-sensitized mouse model of allergic inflammation and asthma used in these studies was as described by Singer et al. (2004), supra. As a negative control, a control peptide containing an N-terminal myristoyl group and the same amino acids as MANS peptide but arranged in random order (i.e., the random N-terminal sequence, RNS, myristoyl-peptide 232) was tested alongside the proposed active peptides. BP2 mice, aged 6-8 wks, were immunized subcutaneously twice at weekly intervals with 1 μg of ovalbumin. After 14 days of sensitization, the animals were exposed to aerosolized ovalbumin, which causes a pronounced goblet cell hyperplasia after 72 hours. At the 72 hr time point, the secretagogue, methacholine ([…]) was delivered using a Buxco system nebulizer providing a fine aerosol for 90 seconds. Fifteen min prior to the secretagogue challenge, 50 μL of the test peptide, at 3 different concentrations (10 μM, 100 μM, or 140 μM), was administered by intratracheal route. The RNS peptide was tested at the highest dose level only (50 μL of 140 μM solution). […] Each experiment was carried out in 6 mice per point, and each set of experiments was repeated 3 times. To test strain-to-strain variations, the above experiment was repeated in Balb/C mice under similar protocol. Both stimulated and unstimulated mucin secretion, in mice treated with […] sodium acetate (data not shown), were identical to saline control. Following the methacholine challenge, the animals were sacrificed and bronchoalveolar lavage (BAL) performed on 6 animals per group for analysis of secreted mucin.
(§2) Mice were sacrificed by cervical dislocation, followed by rapid exposure of the trachea and insertion of a cannula through a small incision. Bronchoalveolar lavage (BAL) fluid was collected with 0.5 ml followed by 3×1 ml PBS containing PMSF (5 mM), EDTA (5 mM), and DTT (5 mM). BAL fluid was separated into cell-free and cell fractions via brief centrifugation prior to any analyses being performed. The cell-free supernatants were analyzed for the presence of mucin via an ELISA method using anti-mucin antibodies shown to react with mouse mucin. Specifically, a mouse anti-MUC5AC antibody that recognizes the carbohydrate portion of secreted mucin was used in these assays. Data generated from each BAL sample were normalized to total protein as determined by Bradford assay. Mucin content was expressed as the value obtained with the anti-mucin antibody minus that obtained with the non-immune control antibody. All ELISA data were statistically examined using a one-way ANOVA.

Data set [4] shares this test system. The experiment in a line: Duration of action of test peptides in a murine model of asthma. Type of data set: in vivo. The settings on record: Balb/C mice.
Text: as §1, §2
Experiments were designed to determine the duration of action of test peptides in a murine model of asthma. As described in Method 1A, Balb/C mice were immunized with ovalbumin. After 14 days, the animals were challenged with aerosolized ovalbumin. After 72 hours the secretagogue, methacholine was delivered by aerosolization. The test peptides ([…] of 100 µM solution) were administered by intratracheal route 30 min, 60 min, or 120 min prior to methacholine challenge. The animals were sacrificed and BAL performed for analysis of secreted mucin The results of this experiment are given in Table VI.

The subject of the next data set is nasal mucus secretion. The experiment in a line: Mucus secretion in upper respiratory tract of primates (nasal lavage, ELISA). The class given is in vivo. The settings on record: rhesus monkeys; 2.0 mL of 140 μM solution in right nostril; nasal lavage 1 hour after treatment. An excerpt:
The purpose of the experiment was to determine the ability of MANS peptide to inhibit mucus secretion in the upper respiratory tract of healthy adult rhesus monkeys. The test used is a standard method for evaluation of nasal secretory activity, and non-human primates typically provide a good correlation to activity in man.
A total of 17 healthy young adult male rhesus monkeys without any prior history of rhinitis were used for the experiment. None of the monkeys had rhinitis before or after the study. The nasal mucus secretion of each monkey was measured in its left nostril prior to any treatment. This value is considered 100% mucus secretion. The monkeys were then randomly divided into the following 4 groups: • Group 1: Normal saline, control (n=3); • Group 2: Sodium acetate, solvent control (n=4); • Group 3: RNS peptide, negative control (n=5); and • Group 4: MANS peptide, test peptide (n=5).
Saline was placed in the left nostril of all 17 animals prior to any treatment. The right nostrils were treated with 2.0 mL of either saline, sodium acetate, RNS peptide or the MANS peptide. Thus, each animal had its own internal control. Nasal lavage was performed on both nostrils of each animal 1 hour after the treatment with the test articles. All lavages were immediately frozen at −80° C. and analyzed for mucus content by ELISA. […]

Data set [5] is described as follows: Solubility in sodium acetate, pH 7. The class given is physicochemical. The settings on record: 120 min sodium acetate, pH 7 (so in the source).
Where [6] appears, read: Table II, 50 μL intratracheal 15 min before methacholine.
Setting [7] is: peptide intratracheal 30 min prior to methacholine challenge.
Where [8] appears, read: peptide intratracheal 60 min prior to methacholine challenge.
[9] abbreviates: peptide intratracheal 120 min prior to methacholine challenge.

Broadly, the solubility is the concentration that dissolves in the medium under given conditions. High values mean a readily soluble substance, low ones a poorly soluble substance. With `CC(=O)N[C@@H](C)C(=O)N[C@@H](CCCCN)C(=O)NCC(=O)N[C@@H](CCC(=O)O)C(=O)O` [Ac-peptide 219] (Ac-AKGE-OH), in data set [1], the solubility is above 200 mg/mL. For the same compound, in the data set on HBE1 cells (25 μM peptide, then 0.5 μM PMA), the “Mucin secretion level below the unstimulated medium control” value is recorded as 20%. Further, the “Block of PMA-induced increase in mucin secretion” value with HBE1 cells (then 0.5 μM PMA) was determined as 100%.
Turning to `CC(=O)N[C@@H](C)C(=O)N[C@@H](C)C(=O)NCC(=O)N[C@@H](CCC(=O)O)C(=O)O` [Ac-peptide 251] (Ac-AAGE-OH), the solubility in data set [1] was above 200 mg/mL. The “Inhibitory effect on PMA-induced increase in mucin secretion” value in the data set with HBE1 cells (peptide concentration not given, 0.5 μM PMA) was 6%.
On to `CCCCCCCCCCCCCC(=O)O[C@@H]1[C@@H](C)[C@@]2(O)[C@@H](C=C(CO)C[C@]3(O)C(=O)C(C)=C[C@@H]23)[C@@H]2C(C)(C)[C@]12OC(C)=O` [PMA, phorbol myristate acetate, reference compound], for which the “Increase in mucin secretion” value in the data set on HBE1 cells (0.5 μM PMA, 30 min) is 20%.
On to `CCCCCCCCCCCCCC(=O)NCC(=O)N[C@@H](C)C(=O)N[C@@H](CCC(N)=O)C(=O)N[C@@H](Cc1ccccc1)C(=O)N[C@@H](CO)C(=O)N[C@@H](CCCCN)C(=O)N[C@H](C(=O)N[C@@H](C)C(=O)N[C@@H](C)C(=O)N[C@@H](CCCCN)C(=O)NCC(=O)N[C@@H](CCC(=O)O)C(=O)N[C@@H](C)C(=O)N[C@@H](C)C(=O)N[C@@H](C)C(=O)N[C@@H](CCC(=O)O)C(=O)N[C@@H](CCCNC(=N)N)C(=O)N1CCC[C@H]1C(=O)NCC(=O)N[C@@H](CCC(=O)O)C(=O)N[C@@H](C)C(=O)N[C@@H](C)C(=O)N[C@H](C(=O)N[C@@H](C)C(=O)O)C(C)C)[C@@H](C)O` [myr-peptide 1, reference compound] (Myristoyl-GAQFSKTAAKGEAAAERPGEAAVA-OH), for which the figures for the “Mucin Secretion % control” value in data set [2] (setting [6]) and in data set [2] (Table III) were 33.8 % control and 40 % control, respectively. For the same compound, the “Mucin Secretion % of control” value is recorded as 29** % of control in data set [2], 35 % of Control in data set [3] (peptide 10 μM), 12 % of Control in data set [3] (peptide 100 μM) and 8 % of Control in data set [3] (peptide 140 μM). Also, the results for the “Duration of action, mucin secretion (% of Control)” value in data set [4] (setting [7]), in data set [4] (setting [8]) and in data set [4] (setting [9]) were 7 % of Control, 44 % of Control and 50 % of Control, respectively. Further, the solubility in data set [1] is below 5 mg/mL. Further, the “Inhibition of mucus secretion” value in the data set with nasal mucus secretion was around 75%. The “Block of PMA-induced increase in mucin secretion” value in the data set with HBE1 cells (then 0.5 μM PMA) was found to be 100%. Further, the “Solubility in sodium acetate” value in data set [5] was “freely soluble”.
`CCCCCCCCCCCCCC(=O)NCC(=O)N[C@H](C(=O)N[C@@H](C)C(=O)N1CCC[C@H]1C(=O)N[C@@H](C)C(=O)N[C@@H](C)C(=O)N[C@@H](CCC(=O)O)C(=O)NCC(=O)N[C@@H](C)C(=O)NCC(=O)N[C@@H](C)C(=O)N[C@@H](CCC(=O)O)C(=O)N[C@H](C(=O)N[C@@H](CCCCN)C(=O)N[C@@H](CCCNC(=N)N)C(=O)N[C@@H](C)C(=O)N[C@@H](CO)C(=O)N[C@@H](C)C(=O)N[C@@H](CCC(=O)O)C(=O)N[C@@H](C)C(=O)N[C@@H](CCCCN)C(=O)N[C@@H](CCC(N)=O)C(=O)N[C@@H](C)C(=O)N[C@@H](Cc1ccccc1)C(=O)O)C(C)C)[C@@H](C)O` [myr-peptide 232, reference compound] (Myristoyl-GTAPAAEGAGAEVKRASAEAKQAF-OH): the “Mucin Secretion % control” value is 96 % control in data set [2] (setting [6]) and 81** % control in data set [2] (Table III). For the same compound, the “Mucin Secretion % of control” value in data set [2] is listed as 108 % of control; in data set [3] (peptide 100 μM), 100 % of Control; in data set [3] (peptide 140 μM), 100 % of Control. For the same compound, the “Duration of action, mucin secretion (% of Control)” value in data set [4] (setting [7]), in data set [4] (setting [8]) and in data set [4] (setting [9]) was 100 % of Control in each case. For the same compound, in data set [1], the solubility was above 15 mg/mL. In addition, the “Inhibition of mucus secretion” value with nasal mucus secretion was “did not have any effect”. In data set [5], the “Solubility in sodium acetate” value was “freely soluble”.
